In paper PMC4148593, “Activation of spleen cells by ArtinM may account for its immunomodulatory properties” (Cell and Tissue Research, 2014):

Molecular target: T1, rArtinM (recombinant ArtinM) (Artocarpus heterophyllus, UniProt Q2VPW4)
T1 construct: recombinant, expressed in E. coli BL21; monomer
T1 sequence (Q2VPW4 2-150): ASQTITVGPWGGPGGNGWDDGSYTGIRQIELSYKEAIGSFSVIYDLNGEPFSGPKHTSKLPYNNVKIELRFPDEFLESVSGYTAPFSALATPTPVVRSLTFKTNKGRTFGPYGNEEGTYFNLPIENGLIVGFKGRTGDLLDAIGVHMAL
Assay: MTT assay, inhibition of lectin-induced mitochondrial activity of murine spleen cells
Format: cell-based
Conditions: read-out: % inhibition at 50 mM

OC[C@H]1OC(O)[C@@H](O)[C@@H](O)[C@@H]1O (stereo partly drawn) [D-mannose]
inhibition at 50000 µM: 80%
